# From patent publication US20050015823A1, “Screening methods employing fish model assessment of vision” (priority 2001, published 2005)
# Key:
# fish = experiment: treatment of model fish with test substances (drugs arrayed alone or in combination in the water/wells); assay type: in vivo; details: monotherapy
# From the text: Fish may be contacted with a test substance, it may be touched or rubbed on their surface or injected into them. A test substance may be added to water in which they are. […] There may be one or multiple fish in each well exposed to the test substance. The test substance may be added prior to the onset of the disease phenotype, concurrent with the onset of the disease phenotype, or subsequent to the onset of the disease phenotype. The same test substance may be added to different wells at different concentration. For example, test substance 1 may be added to well A1 at a concentration of 1 mM, to well A2 at a concentration of 100 uM, to well A3 at a concentration of 10 uM, to well A4 at a concentration of 1 uM and to well A5 at a concentration of 0.1 uM. Then test substance 2 to well B1 etc. The panel of test substances may be known drugs or new chemical entities.
# Additionally, the test substances may be added in combination. For example, well A2 may contain test substance 1 ‘and 2, well A3 test substance 1 and 3, well B2 test substance 2 and 3. Alternatively, every well may contain test substance x, with individual wells containing a panel of additional test substances.
# In other options, a population of fish in a petri dish or a tank may be employed and treated together, e.g. via addition of one or more or a combination of test substances in the water. […]
# [1] = mouse, in vivo; cited from earlier work
Structure (SMILES),concentration showing therapeutic effects (fish) [µM],toxicity [1]
CN1C(=O)CN=C(c2ccccc2)c2cc(Cl)ccc21 [diazepam],35,–
"C[C@H]1c2cccc(O)c2C(=O)C2=C(O)[C@]3(O)C(=O)C(C(N)=O)=C(O)[C@@H](N(C)C)[C@@H]3[C@@H](O)[C@@H]21 [Doxycycline, doxycycline]",–,no apparent toxicity
